# From PMC3597463 (Analytical chemistry, 2013)
# Read-outs that look alike come from different tables or passages of the source.
# Key:
# [1] = system: Lymnaea stagnalis acetylcholine binding protein (Ls-AChBP); test: Ls-AChBP/microsphere-based inhibition assay; details: buffer
# mice [2] = details: fed to fasted mice, from reported LD50
# mice [3] = details: cited from earlier work; for LD50: fed to fasted mice; for oral LD50: mice
# [4] = system: Torpedo marmorata nicotinic acetylcholine receptor (nAChR); test: nAChR/microsphere-based inhibition assay; assay type: binding; details: for Interference with the Luminex nAChR-based assay: restated in discussion, concentration not given there; for IC50 expressed as level in shellfish meat: assuming 100% recoveries
# [5] = target: Torpedo marmorata nicotinic acetylcholine receptor (Torpedo marmorata) (UniProt P02711); test: […]
# nAChR [6] = details: cited from earlier work
# nAChR [7] = details: chemiluminescence assay; cited from earlier work
# nAChR [8] = details: fluorescence polarization assay; cited from earlier work
# [9] = assay type: physicochemical; details: for % Recovery (toxin detected after storage versus freshly analyzed samples): 7 ng/ml, 4 weeks
# [10] = target: Acetylcholine binding protein from Lymnaea stagnalis (Lymnaea stagnalis, UniProt P58154 20-229); test: […]
# Sequence of Acetylcholine binding protein from Lymnaea stagnalis (P58154 20-229): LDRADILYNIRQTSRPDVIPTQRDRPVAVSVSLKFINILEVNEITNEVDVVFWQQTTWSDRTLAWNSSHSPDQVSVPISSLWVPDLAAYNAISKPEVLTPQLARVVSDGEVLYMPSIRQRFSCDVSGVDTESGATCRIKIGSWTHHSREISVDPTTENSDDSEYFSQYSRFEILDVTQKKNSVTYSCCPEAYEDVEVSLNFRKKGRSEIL
# Sequence of Torpedo marmorata nicotinic acetylcholine receptor (Torpedo marmorata) (P02711 whole entry, looked up): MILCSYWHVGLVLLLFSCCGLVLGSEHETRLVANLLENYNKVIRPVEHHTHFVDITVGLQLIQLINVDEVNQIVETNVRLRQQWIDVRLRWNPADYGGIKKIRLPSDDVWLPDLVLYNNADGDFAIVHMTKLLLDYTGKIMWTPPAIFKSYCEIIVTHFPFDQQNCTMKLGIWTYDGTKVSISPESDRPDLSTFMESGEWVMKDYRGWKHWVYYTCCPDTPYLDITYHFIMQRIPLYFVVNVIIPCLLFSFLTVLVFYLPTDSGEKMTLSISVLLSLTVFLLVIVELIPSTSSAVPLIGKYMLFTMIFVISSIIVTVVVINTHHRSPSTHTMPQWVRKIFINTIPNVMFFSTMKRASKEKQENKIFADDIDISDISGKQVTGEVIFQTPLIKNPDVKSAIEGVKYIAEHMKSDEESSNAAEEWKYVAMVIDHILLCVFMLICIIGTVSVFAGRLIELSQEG
molecule,measurement,setting,value
"CC1=C[C@@H](C2=C(C)[C@@H]3/C=C(\C)[C@@H](O)CC[C@@H]4C[C@@H](C)[C@@H](O4)/C(C)=C/CCC4=NCCC[C@@]43CC2)OC1=O [gymnodimine, Gymnodimine]",Assay efficiency for gymnodimine relative to 13-desmethyl spirolide C,[1],14 fold
same,Times less toxic than 13-desmethyl spirolide C,mice [2],> 15 times
same,LD50,mice [3],> 7.5 mg/kg
azaspirazid-1,Interference with the nAChR-based assay (maximum and minimum binding signals),[4]; 1 μM,no effects on maximum and minimum binding signals
same,Interference with the Luminex nAChR-based assay,[4],do not interfere
Biotin-α-bungarotoxin (peptide),maximum binding signal to background ratio,[5],500
C=C1[C@@H](O)[C@@H]2O[C@]3(CC[C@H](/C=C/[C@@H](C)[C@@H]4CC(C)=C[C@@]5(O[C@H](C[C@@](C)(O)C(=O)O)CC[C@H]5O)O4)O3)CC[C@H]2O[C@@H]1[C@@H](O)C[C@H](C)[C@H]1O[C@@]2(CCCCO2)CC[C@H]1C [okadaic acid],Interference with nAChR based assays,nAChR [6]; previous studies,not shown any interferences
same,Interference with the nAChR-based assay (maximum and minimum binding signals),[4]; 10 μM,no effects on maximum and minimum binding signals
same,Interference with the Luminex nAChR-based assay,[4],do not interfere
C/C(=C/C=C/[C@@H](C)C(=O)O)[C@H]1CN[C@H](C(=O)O)[C@H]1CC(=O)O [domoic acid],Interference with the nAChR-based assay (maximum and minimum binding signals),[4]; 10 μM,no effects on maximum and minimum binding signals
same,Interference with the Luminex nAChR-based assay,[4],do not interfere
azaspiracid-2,Interference with nAChR based assays,nAChR [6]; previous studies,not shown any interferences
brevetoxin-2,Interference with nAChR based assays,nAChR [6],not shown any interferences
20-methyl spirolide G,Cross-reactivity (IC50 of 13-desmethyl spirolide C / IC50 of cyclic imine x 100),"[4]; nAChR assay, buffer",95%
same,oral LD50,mice [3]; administered with food,500 Wg/kg
same,oral LD50,mice [3]; by gavage,160 Wg/kg
C=CCC(=C)/C=C/[C@@](C)(O)[C@H]1O[C@@H]2C[C@@H]3O[C@@H]4C[C@@H]5O[C@@H]6C[C@@H]7O[C@@H]8C[C@@H]9O[C@@H]%10C[C@@H]%11O[C@](C)(CCOS(=O)(=O)O)[C@@H](OS(=O)(=O)O)C[C@H]%11O[C@H]%10C[C@H]9O[C@H]8CC[C@@]7(C)O[C@@]6(C)CC[C@H](C)[C@H]5O[C@H]4C[C@@]3(C)O[C@H]2CC1=C [yessotoxin],Interference with nAChR based assays,nAChR [6]; previous studies,not shown any interferences
same,Interference with the nAChR-based assay (maximum and minimum binding signals),[4]; 5 μM,no effects on maximum and minimum binding signals
same,Interference with the Luminex nAChR-based assay,[4],do not interfere
C=C1CCCC2=NCC(C)C(C)CC23CCC(C2C=C(C)C(=O)O2)=C(C)C3/C=C(/C)C(O)CC2CCC3(CCC4(OC(CCC4(C)O)C1)O3)O2 (centres unmarked) [13-desmethyl spirolide C],IC50,nAChR [7],35 nM
same,IC50,[4],10 nM
same,IC20,[4]; buffer,0.2 ± 0.04 ng/mL
same,IC50,[4]; buffer,7.4 ± 0.7 ng/mL
same,IC50,"[4]; buffer (PBS-BT/20% EtOH), n = 8",10.8 ± 0.9 nM
same,IC20,[4]; clam extract,0.3 ± 0.01 ng/mL
same,IC50,[4]; clam extract,10.3 ± 1.4 ng/mL
same,IC80,[4]; clam extract,160 ± 6 ng/mL
same,IC50 expressed as level in shellfish meat,[4]; clam extract,411.6 ± 54.8 Wg/kg
same,IC50,"[4]; clam extract, n = 2",14.9 ± 1.9 nM
same,IC20,[4]; mussel extract,0.4 ± 0.1 ng/mL
same,IC50,[4]; mussel extract,11.3 ± 1.1 ng/mL
same,IC80,[4]; mussel extract,160 ± 8 ng/mL
same,IC50 expressed as level in shellfish meat,[4]; mussel extract,451.3 ± 42.4 Wg/kg
same,IC50,"[4]; mussel extract, n = 6",16.3 ± 1.5 nM
same,Detection efficiency of 13-desmethyl spirolide C relative to gymnodimine,"[4]; nAChR assay, buffer",24 times
same,IC20,"[4]; read-out: IC20 (nM), lower end of dynamic range, buffer",0.4 ± 0.07 nM
same,IC20,"[4]; read-out: IC20 (nM), lower end of dynamic range, clam extract",0.5 ± 0.01 nM
same,IC20,"[4]; read-out: IC20 (nM), lower end of dynamic range, mussel extract",0.6 ± 0.2 nM
same,IC20,"[4]; read-out: IC20 (nM), lower end of dynamic range, scallop extract",0.5 ± 0.2 nM
same,IC80,"[4]; read-out: IC80 (nM), upper end of dynamic range, clam extract",231 ± 23 nM
same,IC80,"[4]; read-out: IC80 (nM), upper end of dynamic range, mussel extract",232 ± 11 nM
same,IC80,"[4]; read-out: IC80 (nM), upper end of dynamic range, scallop extract",201 ± 9 nM
same,IC20,[4]; scallop extract,0.4 ± 0.2 ng/mL
same,IC50,[4]; scallop extract,8.6 ± 1.5 ng/mL
same,IC80,[4]; scallop extract,139 ± 6.5 ng/mL
same,IC50 expressed as level in shellfish meat,[4]; scallop extract,344.2 ± 60.3 Wg/kg
same,IC50,"[4]; scallop extract, n = 5",12.4 ± 2.2 nM
same,IC50,nAChR [8],100 nM
same,% Recovery (toxin detected after storage versus freshly analyzed samples),"[9]; buffer (PBS-BT/20% EtOH), 4–8 °C",109 ± 6%
same,% Recovery (toxin detected after storage versus freshly analyzed samples),"[9]; buffer (PBS-BT/20% EtOH), −20 °C",98.1 ± 6.3%
same,% Recovery (toxin detected after storage versus freshly analyzed samples),"[9]; mussel extract, 4–8 °C",135 ± 23%
same,% Recovery (toxin detected after storage versus freshly analyzed samples),"[9]; mussel extract, −20 °C",121 ± 16%
same,% Recovery (toxin detected after storage versus freshly analyzed samples),"[9]; scallop extract, 4–8 °C",92.0 ± 9.2%
same,% Recovery (toxin detected after storage versus freshly analyzed samples),"[9]; scallop extract, −20 °C",85.5 ± 5.5%
same,% of toxin recovered after storage in mussel homogenate,"[9]; spiked mussel homogenate, two weeks, −20 °C",105.7 ± 5.3%
same,LD50,mice [3],0.5 mg/kg
same,oral LD50,mice [3]; administered with food,500 Wg/kg
same,oral LD50,mice [3]; by gavage,160 Wg/kg
Biotin-α-bungarotoxin (peptide) IVCHTTATSPISAVTCPPGENLCYRKMWCDAFCSSRGKVVELGCAATCPSKKPYEEVTCCSTDKCNPHPKQRPG,maximum binding signal to background ratio,[10],~2000
